Assay results from patent US20210007360A1, “SOLUTIONS COMPRISING OZONIZED OIL” (priority 2018, published 2021).

Experiments:
[1] = cited from earlier work
knees of patients = experiment: Intra-articular ozone and PRP treatment of knees, VAS scores; format: in vivo, human; conditions: 8 sessions of ozone and 2 sessions of PRP, 187 knees of 100 patients, baseline 8.5
Text: Ozone gas injection may cause short-term burning and itching. However, this effect is rarely seen in intramuscular injections. For this reason, ozonide solutions comprising local anesthetic should be preferred especially if superficial injection will be performed. […] It is known that it prevents loss of cartilage by increasing oxygenation of the joint cartilage and reduces pain due to the analgesic effect with its anti-inflammatory effect. There are many publications in the literature about this issue. Similarly, in our own research, it was observed that VAS scores decreased from 8.5 to 4 on average as a result of the application of 8 sessions of ozone and 2 sessions of PRP treatment on 187 knees of 100 patients. In these applications, 20 micrograms of ozone are given as 20 ml (cc). That is, 400 micrograms of ozone have been applied. […] It can be applied at most twice a week. In addition, it can be combined with local anesthetic and anti-inflammatory agents. Vitamin E, which becomes popular in experimental studies in recent years, can be applied together with oil solutions and anti-inflammatory drugs. Hyaluronic acid is known to increase cartilage matrix in the intraarticular injection. It is known that better results are obtained with the ozone treatment and hyaluronic acid combinations. […]

[2] = system: patients diagnosed with a cervical disc hernia; experiment: Regional injections of ozone and PRP in cervical disc hernia, VAS pain score; format: in vivo, human; conditions: 8 sessions of ozone, 2 sessions of PRP, 66 patients, 9.3 at the beginning
Experimental: Cervical disc and spinal disc hernias are one of the common health issues. In the studies we conduct on 66 patients diagnosed with a cervical disc hernia, the pain score is evaluated according to the VAS in 1 month, 4 months and 1 year after the regional injections of 8 sessions of ozone, 2 sessions of PRP. The pain score was 9.3 at the beginning, 6.9 in the first month, 4.8 in the 4th month and 3.6 at the end of the first year. It is also found in the literature that the regional injections of ozone are so effective. However, to perform these applications, there is a need for a clinic or a hospital where ozone treatment is offered. The dosages of solutions of ozonized oil or ozonides in water in regional applications are also applicable here. Depending on the size of the region, the ozonized oil or ozonide solution of 2-4 mg (2000-4000 ppm), which is made with ozonides comprising 10% ozone may be injected into paravertebral muscles and subcutaneous tissue to be able to benefit from anti-inflammatory and analgesic effects. However, with tissue oxygenation, dissolution of muscle spasm, and increased blood supply to the hernia, a long-acting treatment and shrinking of the hernia is provided.

[3] = 20° C.; cited from earlier work

CCCCN1CCCCC1C(=O)Nc1c(C)cccc1C (stereo not shown) [bupivacaine]
duration of local effect ([1]; injection in oil): 72 h

O=[O+][O-] [ozone]
VAS score after treatment, average (knees of patients): 4
VAS pain score at the end of the first year [2]: 3.6
VAS pain score in the 4th month [2]: 4.8
VAS pain score in the first month [2]: 6.9
half life [3]: 40 min

CCN(CC)CC(=O)Nc1c(C)cccc1C [Lidocaine]
duration of effect in the injection zone ([1]; normal injection): up to 2 hours
